Data published in patent publication US20130029970A1 (priority 2009, published 2013).
Like-named read-outs stand apart in the source and are kept apart here.

How the values were obtained:
human CB1 receptors = molecular target: T1, human CB1 receptors (Homo sapiens, UniProt P21554); test: cAMP assay in HEK-293 cells, hCB1 agonist; type: cell-based; settings: inhibition of forskolin-stimulated cAMP, HEK-293 cells
T1 construct: (cDNA clone) CNR01L000
Excerpt: (§1) Stable, HEK-293-derived cell lines that recombinantly express hCBI or hCB2 were established. In brief, the clone hCB1 (CNR IL) or hCB2 (CNR2) was transfected into human embryonic kidney cells (HEK-293) using Lipofectamine 2000 (Gibco, Cat#11668-019) according to the manufacturer's protocol. Transfected clones were isolated by single colony purification and clones were screened for receptor expression using a whole cell, ^3H—CP 55,940 radioligand binding assay. HEK-293 stable cells were maintained in Dulbecco's modified Eagles medium (DMEM) containing 10% fetal bovine serum, 2 mM L-glutamine and 0.5 mg/mL G-418.
(§2) Functional assays which monitor G-protein coupled receptor or downstream cellular responses can be used to characterize potential CB1 receptor and/or CB2 receptor agonist or antagonist activities. Direct activation (or inhibition of activation) can be monitored using a GTPγS assay (membrane-based assay) or cAMP assay (whole cell-based assay).
(§3) cAMP assays were performed in HEK-293 cells stably expressing human CB1 or CB2 receptors. For cannabinoid receptor functional assays measuring agonist effects on cellular cAMP levels, monolayers of cultured cells were harvested with enzyme-free PBS-based cell dissociation buffer (Gibco, Cat#13151-04). Cells suspensions were centrifuged and the cells were washed once with PBS, were centrifuged again, and the cells were re-suspended in HBSS (Hank's Balanced Salt Solution, Cellgro, Cat #21-022-CV) solution containing 10 mM HEPES and 0.1% fatty acid free BSA (Sigma, Cat #A0281). Cell suspensions were prepared at 1,500,000 cells per ml. Stock solutions of test substances (10 mM) in DMSO were diluted to 1 mM using 30% DMSO as diluent. Test substances of solutions (1 mM) were further diluted down to 3× of final assay concentrations in the above HBSS buffer containing 0.1% BSA in the presence of 90 uM forskolin (Sigma Cat#F6886). To perform the assay, 20 uL of cell suspension (1,500,000 cells/mL) were added to each well in 96 well plate and treated with 10 uL test substance solution diluted as described above. Cells and compounds were incubated at 37° C. for 30 minutes. Cells were lysed and cAMP concentration was measured using DiscoveRx −XS+ cAMP assay kit (DiscoveRx Corporation Ltd., Fremont, Calif., USA, Cat #90-0075-03), following the manufacturer's protocol. GraphPad Prism software was used to calculate EC50 values using sigmoidal dose response curve fitting. The maximal amount of cAMP produced by forskolin was defined as 100%. CB1 or CB2 agonists reduced forskolin-stimulated cAMP signaling. The EC50 value of an agonist compound was defined as the concentration at which 50% of the forskolin-stimulated cAMP synthesis was inhibited.

human CB2 receptors = molecular target: T2, human CB2 receptors (Homo sapiens, UniProt P34972); test: cAMP assay in HEK-293 cells, hCB2 agonist; type: cell-based; settings: for hCB2 EC50 (cAMP ag, nM): inhibition of forskolin-stimulated cAMP, HEK-293 cells
T2 construct: (cDNA clone) CNR0200000
T2 sequence (P34972 whole entry): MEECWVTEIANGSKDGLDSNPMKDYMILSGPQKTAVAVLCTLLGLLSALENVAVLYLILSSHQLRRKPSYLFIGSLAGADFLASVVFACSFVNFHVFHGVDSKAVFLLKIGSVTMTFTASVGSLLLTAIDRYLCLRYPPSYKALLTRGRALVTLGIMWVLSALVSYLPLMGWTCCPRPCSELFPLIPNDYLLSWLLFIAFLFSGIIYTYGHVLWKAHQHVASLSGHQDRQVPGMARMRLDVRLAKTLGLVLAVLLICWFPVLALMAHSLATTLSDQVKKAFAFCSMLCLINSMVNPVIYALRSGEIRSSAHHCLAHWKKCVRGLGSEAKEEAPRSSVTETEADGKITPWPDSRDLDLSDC
Method: as §2
as §3, with “For cannabinoid receptor functional assays measuring agonist effects on cellular cAMP levels, monolayers of cultured cells were harvested with enzyme-free PBS-based cell dissociation buffer (Gibco, Cat#13151-04).” left out, “100%.” for “100%. CB1 or CB2 agonists reduced forskolin-stimulated cAMP signaling. The EC50 value of an agonist compound was defined as the concentration at which 50% of the forskolin-stimulated cAMP synthesis was inhibited.”

[1] = molecular target: T3, recombinant human cannabinoid receptor CB1 (Homo sapiens, UniProt P21554); test: Cannabinoid receptor radioligand binding assay, [3H]-CP 55,940 displacement, hCB1
T3 construct: (cDNA clone) CNR01L000
T3 sequence (P21554 whole entry): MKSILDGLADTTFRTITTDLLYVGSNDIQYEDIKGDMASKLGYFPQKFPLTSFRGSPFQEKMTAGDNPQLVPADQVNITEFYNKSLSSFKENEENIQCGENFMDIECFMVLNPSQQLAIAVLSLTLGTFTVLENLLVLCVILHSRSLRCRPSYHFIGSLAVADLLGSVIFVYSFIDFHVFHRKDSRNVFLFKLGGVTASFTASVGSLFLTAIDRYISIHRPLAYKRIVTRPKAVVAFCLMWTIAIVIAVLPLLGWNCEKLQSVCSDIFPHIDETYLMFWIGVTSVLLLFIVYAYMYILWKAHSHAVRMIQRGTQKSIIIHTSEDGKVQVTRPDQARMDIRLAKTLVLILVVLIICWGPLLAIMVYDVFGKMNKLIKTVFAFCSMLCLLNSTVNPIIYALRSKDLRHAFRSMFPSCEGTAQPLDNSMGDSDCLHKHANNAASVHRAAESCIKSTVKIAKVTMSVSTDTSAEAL
Excerpt: as §1
(§4) Membranes were isolated from transfected cells as follows. Monolayers of cultured cells were washed twice with phosphate-buffered saline (PBS). Cells were scraped into 20 mM HEPES, pH 7.4, 10 mM EDTA containing complete cocktail protease inhibitors (Roche, Catalog #11 697 498 001) and were homogenized by an electric-powered mechanical probe homogenizer (Omni GLH; probe G7-195S) for 40 seconds at 7000 rpm. Homogenates were centrifuged 10 minutes at 1000×g at 4° C. The supernatant was collected and was centrifuged for 1 hour at 40,000×g. The supernatant was then decanted and the resulting pellet was re-suspended in 20 mM HEPES, pH 7.4, 5 mM MgCl2, 1 mM EDTA, 10% sucrose with complete cocktail protease inhibitors. Protein concentration of membrane suspensions were measured by Bradford Protein Assay using bovine serum albumin as the standard (BioRad catalog #500-0006). Protein concentrations of membrane suspensions were adjusted with the final buffer in the range of 5 to 10 mg/mL and were stored at −80° C. until further use.
Radioligand binding assays were performed by incubating membranes (2-10 μg protein) prepared from HEK-293 cells expressing recombinant human cannabinoid receptors, CB1 or CB2, at room temperature with 0.5 nM cannabinoid receptor agonist, [^3H]-CP 55,940 (Perkin Elmer, catalog #NET1051) in 0.2 mL of binding buffer (50 mM Tris-HCl, pH 7.5, 5 mM MgCl2, 2.5 mM EDTA) and 0.1% fatty acid free bovine serum albumin (Sigma Cat. #A0821) for 90 minutes. A rapid filtration technique using Millipore FB filter plates (Catalog #MADVNOB) and filtration apparatus (Millipore system Catalog MAVM0960R) with vacuum aspiration was used to harvest and rinse labeled membranes (8 times with 0.2 mL of chilled binding buffer). The radioactivity bound to the filters was counted with 0.05 mL of liquid scintillant (UltraGold MV, PerkinElmer catalog #6013159) in a scintillation counter (Perkin Elmer Microbeta instrument). Nonspecific binding was determined in the presence of unlabeled 1 μM CP 55,940 (Sigma Aldrich, catalog #C1112). Binding data were analyzed using GraphPad Prism (GraphPad Software, Inc. San Diego, Calif.).

[2] = molecular target: T4, recombinant human cannabinoid receptor CB2 (Homo sapiens, UniProt P34972); test: Cannabinoid receptor radioligand binding assay, [3H]-CP 55,940 displacement, hCB2
T4 construct: (cDNA clone) CNR0200000
T4 sequence (P34972 whole entry): as the sequence (P34972 whole entry) above
Method: as §4, with “Cells were scraped into 20 mM HEPES, pH 7.4, 10 mM EDTA containing complete cocktail protease inhibitors (Roche, Catalog #11 697 498 001) and were homogenized by an electric-powered mechanical probe homogenizer (Omni GLH; probe G7-195S) for 40 seconds at 7000 rpm.” left out
A rapid filtration technique using Millipore FB filter plates (Catalog #MADVNOB) and filtration apparatus (Millipore system Catalog MAVM0960R) with vacuum aspiration was used to harvest and rinse labeled membranes (8 times with 0.2 mL of chilled binding buffer). […] Binding data were analyzed using GraphPad Prism (GraphPad Software, Inc. San Diego, Calif.).

[3] = displacement of 0.5 nM [3H]-CP 55,940, read-out: hCB1 IC50 (CP displ)
[4] = displacement of 0.5 nM [3H]-CP 55,940, read-out: hCB2 IC50 (CP displ)

T1 sequence (P21554 whole entry): as the sequence (P21554 whole entry) above

Row | Compound | hCB1 EC50 (cAMP ag, nM) (human CB1 receptors) | EC50 (human CB2 receptors) | IC50 [1, 3] | IC50 [2, 4] | IC50 [1] | IC50 [2] | EC50 (human CB1 receptors; read-out: hCB1 EC50 (cAMP ag)) | hCB2 EC50 (cAMP ag, nM) (human CB2 receptors)
1 | Cc1cc2cc(C(=O)c3cccc(Cl)c3Cl)sc2[nH]1 [Compound 2, (2,3-dichlorophenyl)(5-methyl-6H-thieno[2,3-b]pyrrol-2-yl)methanone] | NS (NS means “Not Significant,” which means less than 30% agonist activity when compared to the positive control.) | 1 to 10 µM | > 10 µM | 1 to 10 µM |  |  |  | 
2 | Cc1cc2cc(C(=O)c3cccnc3)sc2n1CCN1CCOCC1 [Compound 14, (5-Methyl-6-(2-morpholinoethyl)-6H-thieno[2,3-b]pyrrol-2-yl)(pyridin-3-yl)methanone] | NS (NS means “Not Significant,” which means less than 30% agonist activity when compared to the positive control.) | 0.1 to 1 µM |  |  | > 10 µM | 1 to 10 µM |  | 
3 | Cc1cc2cc(C(=O)c3ccccn3)sc2n1CCN1CCOCC1 [Compound 16] | NS (NS means “Not Significant,” which means less than 30% agonist activity when compared to the positive control.) | 0.1 to 1 µM |  |  | > 10 µM | 1 to 10 µM |  | 
4 | Cc1cc2cc(C(=O)c3cccc(Cl)c3Cl)sc2n1CC(=O)N1CCOCC1 [Compound 22, 2-(2-(2,3-Dichlorobenzoyl)-5-methyl-6H-thieno[2,3-b]pyrrol-6-yl)-1-morpholinoethanone] |  | 0.1 to 1 µM |  |  | > 10 µM | 1 to 10 µM | 0.1 to 1 µM | 
5 | Cc1cc2cc(C(=O)c3ccncn3)sc2n1CCN1CCOCC1 [Compound 34, (5-Methyl-6-(2-morpholinoethyl)-6H-thieno[2,3-b]pyrrol-2-yl)(pyrimidin-4-yl)methanone] | NS (NS means “Not Significant,” which means less than 30% agonist activity when compared to the positive control.) | 1 to 10 µM | > 10 µM | > 10 µM |  |  |  | 
6 | Cc1cc2cc(C(=O)c3ccncc3)sc2n1CCN1CCOCC1 [Compound 40, (5-Methyl-6-(2-morpholinoethyl)-6H-thieno[2,3-b]pyrrol-2-yl)(pyridin-4-yl)methanone] | NS (NS means “Not Significant,” which means less than 30% agonist activity when compared to the positive control.) | 0.1 to 1 µM |  |  | > 10 µM | 1 to 10 µM |  | 
7 | COc1ccc(C(=O)c2cc3cc(C)n(CCC(=O)O)c3s2)cc1 [Compound 73, 3-(2-(4-Methoxybenzoyl)-5-methyl-6H-thieno[2,3-b]pyrrol-6-yl)propanoic acid] | NS (NS means “Not Significant,” which means less than 30% agonist activity when compared to the positive control.) |  | > 10 µM | > 10 µM |  |  |  | NS (NS means “Not Significant,” which means less than 30% agonist activity when compared to the positive control.)
8 | CCS(=O)(=O)NCCCn1c(C)cc2cc(C(=O)c3ccc(OC)cc3)sc21 [Compound 74, N-(3-(2-(4-Methoxybenzoyl)-5-methyl-6H-thieno[2,3-b]pyrrol-6-yl)propyl)ethanesulfonamide] | NS (NS means “Not Significant,” which means less than 30% agonist activity when compared to the positive control.) | 0.1 to 1 µM |  |  | > 10 µM | 1 to 10 µM |  | 
9 | COc1ccc(C(=O)c2cc3cc(C)[nH]c3s2)c(Cl)c1 [Compound 79, (2-Chloro-4-methoxyphenyl)(5-methyl-6H-thieno[2,3-b]pyrrol-2-yl)methanone] | NS (NS means “Not Significant,” which means less than 30% agonist activity when compared to the positive control.) | 0.1 to 1 µM |  |  | > 10 µM | > 10 µM |  | 
10 | COc1ccc(C(=O)c2cc3cc(C)n(CCCNS(=O)(=O)c4ccccc4)c3s2)cc1 [Compound 81, N-(3-(2-(4-Methoxybenzoyl)-5-methyl-6H-thieno[2,3-b]pyrrol-6-yl)propyl)benzenesulfonamide] | NS (NS means “Not Significant,” which means less than 30% agonist activity when compared to the positive control.) |  | > 10 µM | 1 to 10 µM |  |  |  | NS (NS means “Not Significant,” which means less than 30% agonist activity when compared to the positive control.)
11 | COc1ccc(C(=O)c2cc3cc(C)n(CCN4CCOCC4=O)c3s2)cn1 [Compound 148, 4-(2-(2-(6-methoxynicotinoyl)-5-methyl-6H-thieno[2,3-b]pyrrol-6-yl)ethyl)morpholin-3-one] | NS (NS means “Not Significant,” which means less than 30% agonist activity when compared to the positive control.) |  | > 10 µM | > 10 µM |  |  |  | 
